Measurements reported in patent publication US5821243A, “Compounds compositions and methods for treating influenza” (priority 1997, dated 1998).
Counter-ions that a name gives are not always drawn. Like-named read-outs stand apart in the source and are kept apart here.

Assays:
influenza = assay: Potency against influenza (test not specified)
[1] = biological target: influenza A/WSN virus transcriptase (Influenza A virus, UniProt P03427+P03430+P15659); assay: biochemical; settings: 45 minutes at 31° C, 1% DMSO; read-out: IC50, concentration required to achieve 50% inhibition of influenza A/WSN virus transcriptase activity
[2] = biological target: influenza virus cleavage of cap 1 RNA (Influenza A virus, UniProt P03427+P15659); assay: Assay for cleavage of cap 1 AIMV RNA4 by influenza virus; assay type: biochemical; settings: read-out: IC50, 50% inhibition of influenza virus cleavage of cap 1 RNA
MDCK cells = assay: Cell growth assay (MTT) in MDCK cells; assay type: cell-based, canine; settings: Canis lupus familiaris, 2-3 days, read-out: IC50, concentration required to achieve a 50% reduction of optical density (cell growth)
Experimental: Effects of the pyridazine derivatives of the invention on cell growth were determined in MDCK cells in 96 well plates by a tetrazolium-based calorimetric method (R. Pauwels et al., J. Virol. Methods, 20, 309-321 (1988)). This assay detects the in situ reduction of 3-(4,5-dimethylthiazol-2-yl)-2,5-diphenyltetrazolium bromide (MTT) by viable cells. Approximately 1×10^4 cells were seeded per well and incubated with drug-containing growth media for 2-3 days (3-4 cell doublings). The drug concentration resulting in a reduction of optical density by 50% was determined.

influenza A/WSN virus = assay: Plaque reduction in MDCK cells, influenza A/WSN
Experimental: (§1) Compounds were evaluated for antiviral activity against influenza A/WSN, A/Victoria and B/Lee viruses by plaque reduction in Madin Darby canine kidney (MDCK) cells. Duplicate monolayers of MDCK cells in 6 well plates were washed free of protein-containing media, infected with 50-100 plaque-forming units of virus (0.4 ml. volume), and incubated at 37° C. for 60 minutes. After aspiration of the virus inoculum, a 0.6% agarose overlay (3 ml.) containing Eagle minimal essential media, trypsin (8 μg/ml.), and the appropriate drug dilution (final concentration of 1% DMSO) was added to the cell monolayer. Plates were incubated at 370° C. in a humidified atmosphere of 5% CO2 in air. After 48 hours, monolayers were fixed with glutaraldehyde, stained with 0.1% crystal violet and the plaques were counted. The percentage of plaque inhibition relative to the infected control (no drug) plates were calculated for each drug concentration and the 50% inhibitory concentration (IC50) was determined.

[3] = test system: influenza A/Victoria virus; assay: Plaque reduction in MDCK cells, influenza A/Victoria
Experimental: as §1

influenza B/Lee virus = assay: Plaque reduction in MDCK cells, influenza B/Lee; settings: read-out: IC50, […], B/Lee, 48 hours
Experimental: as §1

[4] = MDCK, 48 h, read-out: IC50, […], A/WSN, MDCK cells, 48 hours
[5] = MDCK, 48 h, read-out: IC50, […], A/Victoria, MDCK cells, 48 hours
[6] = read-out: IC50, […], A/WSN, MDCK cells, 48 hours

CC1=NN(c2ccc(C)c(S(N)(=O)=O)c2)C(=O)C(=O)C1=O [2-methyl-5-(6-methyl-3,4,5-trioxo-2H,3H,4H,5H-pyridazinyl)benzenesulfonamide]
potency against influenza (influenza): significant potency

CC1=NN(c2ccc(C(N)=O)cc2)C(=O)C(=O)C1=O [4-(6-methyl-3,4,5-trioxo-2H,3H,4H,5H-pyridazinyl)benzenecarboxamide]
potency against influenza (influenza): significant potency

CC1=NN(c2ccc3c(c2)S(=O)(=O)NC3=O)C(=O)C(=O)C1=O [6-(6-methyl-3,4,5-trioxo-2H,3H,4H,5H-pyridazinyl)-1,1-dioxo-1,2-dihydro-1λ^6-benz<d>isothiazol-3-one]
potency against influenza (influenza): significant potency

CC1=NN(c2ccc(C(=O)O)cc2C)C(=O)C(=O)C1=O [Example 1, 3-methyl-4-(6-methyl-3,4,5-trioxo-2H,3H,4H,5H-pyridazinyl)benzoic acid]
IC50 [1]: 0.1 µM | IC50 [2]: 0.2 µM | IC50 (MDCK cells): > 200 µM | IC50 (influenza A/WSN virus; [4]): 50 µM | IC50 [3, 5]: 90 µM

CC1=NN(c2ccc(C(=O)O)cc2C)C(=O)C(=O)C1=O [Example 2, Sodium Salt of 3-methyl-4-(6-methyl-3,4,5,-trioxo-2H,3H,4H,5H-pyridazinyl)benzoic acid]
IC50 (influenza A/WSN virus; [6]): 100 µM | IC50 (influenza B/Lee virus): > 200 µM

CC1=NN(c2ccc(C(=O)O)c(Cl)c2)C(=O)C(=O)C1=O [Example 3, 2-chloro-4-(6-methyl-3,4,5-trioxo-2H,3H,4H,5H-pyridazinyl)benzoic acid]
IC50 (influenza A/WSN virus; [4]): 16 µM | IC50 [3, 5]: 50 µM

CC1=NN(c2ccc(S(N)(=O)=O)cc2)C(=O)C(=O)C1=O [Example 4, 4-(6-methyl-3,4,5-trioxo-2H,3H,4H,5H-pyridazinyl)benzene sulfonamide]
IC50 [1]: 1 µM | IC50 [2]: 2 µM | IC50 (MDCK cells): > 100 µM | IC50 (influenza A/WSN virus; [4]): 8 µM | IC50 [3, 5]: 8 µM

CC1=NN(c2ccc(S(N)(=O)=O)cc2)C(=O)C(=O)C1=O [Example 5, Sodium Salt of 4-(6-methyl-3,4,5-trioxo-2H,3H,4H,5H-pyridazinyl)benzoic sulfonamide]
IC50 (influenza A/WSN virus; [6]): 8 µM | IC50 (influenza B/Lee virus): 30 µM | IC50 ([3]; read-out: IC50, […], A/Victoria, MDCK cells, 48 hours): 11 µM

CC1=NN(c2ccc(-c3nnn[nH]3)cc2)C(=O)C(=O)C1=O [Example 6, 2-(4-tetrazolylphenyl) 2,3,4,5-tetrahydro-6-methyl-pyridazine-3,4,5-trione]
IC50 [1]: 0.2 µM | IC50 (influenza A/WSN virus; [4]): 1 µM | IC50 [3, 5]: 2 µM

CC1=NN(c2ccc(-c3nn[nH]n3)cc2)C(=O)C(=O)C1=O [Example 7, Sodium Salt of 2-(4-tetrazolylphenyl) 2,3,4,5-tetrahydro-6-methyl-pyridazine-3,4,5-trione]
IC50 (influenza A/WSN virus; [4]): 2 µM

CC1=NN(c2ccc3[nH]ncc3c2)C(=O)C(=O)C1=O [Example 8, 5-indazolyl-2,3,4,5-tetrahydro-6-methyl-pyridazine-3,4,5-trione]
IC50 (influenza A/WSN virus; [4]): 50 µM

CC1=NN(c2ccc3[nH]nnc3c2)C(=O)C(=O)C1=O [Example 9, 5-benzotriazolyl-2,3,4,5-tetrahydro-6-methyl-pyridazine-3,4,5-trione]
IC50 (influenza A/WSN virus; [4]): 20 µM

CC1=NN(c2ccc(S(=O)(=O)Nc3cccnc3)cc2)C(=O)C(=O)C1=O [N-(3-pyridyl)-4-(6-methyl-3,4,5-trioxo-2H,3H,4H,5H-pyridazinyl)benzenesulfonamide]
potency against influenza (influenza): significant potency

CC(=O)NS(=O)(=O)c1ccc(N2N=C(C)C(=O)C(=O)C2=O)cc1 [N-acetyl-4-(6-methyl-3,4,S-trioxo-2H,3H,4H,5H-pyridazinyl)benzenesulfonamide]
potency against influenza (influenza): significant potency

CNS(=O)(=O)c1ccc(N2N=C(C)C(=O)C(=O)C2=O)cc1 [N-methyl-4-(6-methyl-3,4,5-trioxo-2H,3H,4H,5H-pyridazinyl)benzenesulfonamide]
potency against influenza (influenza): significant potency

CNS(=O)(=O)c1ccc(Cl)c(N2N=C(C)C(=O)C(=O)C2=O)c1 [N-methyl-4-chloro-3-(6-methyl-3,4,5-trioxo-2H,3H,4H,5H-pyridazinyl)benzenesulfonamide]
potency against influenza (influenza): significant potency

CC1=NN(c2ccc(S(=O)(=O)Nc3ccccc3)cc2)C(=O)C(=O)C1=O [N-phenyl-4-(6-methyl-3,4,5-trioxo-2H,3H,4H,5H-pyridazinyl)benzenesulfonamide]
potency against influenza (influenza): significant potency
